Activity calls are given as the source filed them. How the calls were made is not given here.
Tested on: M. tuberculosis H37Rv growth inhibition with meropenem
Assay: dose response, H37Rv, with and without meropenem (AID 434987);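 further: growth over 7 days at 37 °C before Alamar Blue read on day 9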
[1] = M. tuberculosis H37Rv growth inhibition, measured here: IC50 without meropenem
[2] = M. tuberculosis H37Rv growth inhibition, measured here: IC90 without meropenem
[3] = measured here: IC90 with meropenem

SMILES | IC50 | IC50 [1] | IC90 [2] | IC90 [3]
CCOc1ccc2nc(SC3CC(=O)N(c4cccc(OC)c4)C3=O)sc2c1 (configuration not stated) | 23.5 µM (inactive) | 44.2 µM | 49.9 µM | 25.7 µM
COc1ccc2c(c1)c(CC(=O)Nc1ccc(C)cc1)c(C)n2C(=O)c1ccc(Cl)cc1 | > 100 µM (inactive) | > 100 µM | > 100 µM | > 100 µM
Cc1c(C(=O)Nc2cccnc2)oc2ccc(Br)cc12 | > 100 µM (inactive) | > 100 µM | > 100 µM | > 100 µM
O=C(Cc1cccc2ccccc12)N/N=C/c1ccc(OC(=O)/C=C/c2ccco2)cc1 | 69 µM (inactive) | > 100 µM | > 100 µM | > 100 µM
S=C(Nc1ccc(Cl)cc1)c1nc2ccccc2s1 | 43.2 µM (inactive) | > 100 µM | > 100 µM | > 100 µM
CCSc1nnc(NC(=O)Cn2cnc3ccccc3c2=O)s1 | > 100 µM (inactive) | > 100 µM | > 100 µM | > 100 µM
Cc1ccc(-c2nc3ccccc3o2)cc1NC(=S)NC(=O)/C=C/c1ccco1 | 65.8 µM (inactive) | > 100 µM | > 100 µM | > 100 µM
COC(=O)[C@@]1(Cc2ccc(F)cc2)[C@H]2c3cc(C(=O)N(C)C)n(Cc4ccc(OC)c(OC)c4)c3C[C@H]2CN1C(=O)c1ccccc1 | > 100 µM (inactive) | > 100 µM | > 100 µM | > 100 µM
CSc1ccc(CCNC(=O)c2cc(C)nn2-c2ccccc2)cc1 | > 100 µM (inactive) | > 100 µM | > 100 µM | > 100 µM
CCC(=O)N1CCN(c2ccc(NC(=S)NC(=O)c3ccc(OC)c([N+](=O)[O-])c3)cc2)CC1 | 40.2 µM (inactive) | 79.6 µM | > 100 µM | 67.8 µM
CC(=O)c1ccc(-n2c(C)ccc2-c2ccccc2)cc1 | 20.2 µM | 61.3 µM | 88.3 µM | > 100 µM
c1ccc(-n2c3ccccc3c3ccccc32)cc1 | 3.27 µM | > 100 µM | > 100 µM | 22.7 µM
O=C(CSc1ncnc2c1cnn2-c1ccccc1)Nc1ccc2c(c1)OCO2 | 27.3 µM (inactive) | 49.1 µM | > 100 µM | > 100 µM
CC12CCC(C/C1=N/NC(=O)Nc1ccccc1)C2(C)C (configuration not stated) | 14.9 µM | > 100 µM | > 100 µM | > 50 µM
CC(C)=CCC/C(C)=C/C=N/NC(=O)c1ccc([N+](=O)[O-])cc1 | 1.02 µM | 49 µM | > 100 µM | > 100 µM
CSc1ccccc1NC(=O)c1c(Br)cnn1C | 28.4 µM | 82.7 µM | > 100 µM | > 100 µM
CCOc1cc(CNC(C)C)c(Cl)cc1OCC(=O)NCCc1ccccc1 | > 100 µM (inactive) | > 100 µM | > 100 µM | > 100 µM
c1ccc(Nc2ncnc3c2oc2ccccc23)cc1 | 2 µM | > 100 µM | > 100 µM | > 100 µM
O=C(O)CCCN1C(=O)/C(=C\c2ccc(-c3nc4ccccc4s3)o2)SC1=S | 24.3 µM | 60.4 µM | > 100 µM | > 100 µM
CC(C)C1CC(CCNCc2ccc(N(C)C)cc2)(c2ccccc2)CCO1 (configuration not stated) | 24.5 µM (inactive) | 29 µM | 40.7 µM | 26.9 µM

SMILES | IC50 | IC50 [1] | IC90 [2] | IC90 [3]
CCC(=O)NC(=S)Nc1ccc(NC(=O)c2cccc([N+](=O)[O-])c2C)cc1 | > 100 µM (inactive) | > 100 µM | > 100 µM | > 100 µM
O=C(O)CCN1C(=O)/C(=C/c2ccc(-c3nc4ccccc4s3)o2)SC1=S | 38.3 µM (inactive) | 60.1 µM | > 100 µM | 78.4 µM
CCOc1cc(N2CCOCC2)c(OCC)cc1NC(=O)c1cc(C)cc(C)c1 | 23.7 µM | > 100 µM | > 100 µM | > 100 µM
COc1ccc2[nH]c3c(c2c1)CCN=C3C | > 100 µM (inactive) | > 100 µM | > 100 µM | > 100 µM
Cc1nc2ccccc2c(=O)n1/N=C/c1c(O)ccc2oc3c(c12)CCCC3 | > 100 µM (inactive) | > 100 µM | > 100 µM | > 100 µM
O=C(NCCC1=CCCCC1)NC1CCCCC1 | 17.8 µM | > 100 µM | > 100 µM | > 50 µM
Cc1cc(Br)ccc1NC(=O)CN1C(=O)C2CC=CCC2C1=O (configuration not stated) | 1 µM | 8.65 µM | 26.7 µM | 38.7 µM
COc1ccnc(CS(=O)c2nc3cc(OC(F)F)ccc3[nH]2)c1OC (configuration not stated) | > 100 µM (inactive) | > 100 µM | > 100 µM | > 100 µM
COc1cccc(NC(=O)c2cc(-c3cccnc3)nc3c(Cl)cccc23)c1 | > 100 µM (inactive) | > 100 µM | > 100 µM | > 100 µM
CC/C(=N\NC(=O)c1ccc(-c2ccccc2)cc1)C12CC3CC(CC(C3)C1)C2 | 40.7 µM (inactive) | 41.1 µM | 47.9 µM | 43.7 µM
COc1ccccc1/C=N/NC(=S)Nc1cccnc1 | 31.1 µM | > 100 µM | > 100 µM | > 50 µM
CCOC(=O)c1c(NC(=S)NC(=O)c2ccc(Cn3cc(Cl)cn3)o2)sc2c1CCC(C)C2 (configuration not stated) | > 100 µM (inactive) | > 100 µM | > 100 µM | > 100 µM
O=C1N/C(=N\N=C\c2ccc3ncccc3c2)SC1Cc1ccc(SC(F)F)cc1 (configuration not stated) | > 100 µM (inactive) | > 100 µM | > 100 µM | > 100 µM
O=S(=O)(Cc1ccccc1)c1cnc2ccccc2n1 | 14.1 µM (inactive) | 24.3 µM | 26.6 µM | 48.6 µM
CCC(C(=O)NC1C(=O)N2C(C(=O)O)=C(CSc3nnc(C)s3)CSC12)c1ccccc1 (configuration not stated) | 0.587 µM | > 100 µM | > 100 µM | 1.57 µM
COc1ccc2c(C)nc(Nc3nc(-c4ccccc4)cc(=O)[nH]3)nc2c1 | > 100 µM (inactive) | > 100 µM | > 100 µM | > 100 µM
CCC1CCCCN1C(=O)CSc1nnc(-c2ccc(Cl)s2)o1 (configuration not stated) | > 100 µM (inactive) | > 100 µM | > 100 µM | > 100 µM
O=c1c(O)c(-c2ccc3c(c2)OCO3)oc2ccccc12 | 2.12 µM | > 100 µM | > 100 µM | > 100 µM
O=C(CSc1ccc([N+](=O)[O-])cn1)Nc1ccc(N2CCOCC2)cc1 | 4.82 µM | 17.6 µM | > 100 µM | > 100 µM
O=C(N/N=C\c1cn[nH]c1-c1ccc(Cl)cc1)c1cccs1 | > 100 µM (inactive) | > 100 µM | > 100 µM | > 100 µM

SMILES | IC50 | IC50 [1] | IC90 [2] | IC90 [3]
CCc1cc2c(Sc3nc4ccccc4s3)ncnc2s1 | 50.6 µM (inactive) | 90.1 µM | > 100 µM | > 100 µM
Nc1c(C(=O)c2cccs2)sc2nsc(SCCN3CCCCC3)c12 | > 100 µM (inactive) | > 100 µM | > 100 µM | > 100 µM
CCN(CC)c1ccc(CN2CCCCCC2)cc1 | 43.6 µM (inactive) | 48.1 µM | > 100 µM | 49.4 µM
CCOC(=O)c1c(C)nc2sc(C(=O)Nc3ccccc3)c(N)c2c1-c1ccc(OC)cc1 | > 100 µM (inactive) | > 100 µM | > 100 µM | > 100 µM
O=C(Cc1ccccc1)NC(=S)Nc1ccc(N2CCCCC2)cc1 | > 100 µM (inactive) | > 100 µM | > 100 µM | > 100 µM
CC(C)(C)NS(=O)(=O)c1ccc(NC(=O)C(Sc2ccccc2)c2ccccc2)cc1 (configuration not stated) | > 100 µM (inactive) | > 100 µM | > 100 µM | > 100 µM
O=C(NCCC1=CCCCC1)c1ccc(Cl)c([N+](=O)[O-])c1 | 25.9 µM (inactive) | 54.3 µM | > 100 µM | 30.2 µM
CCOC(=O)C1=C(C)N=c2s/c(=C\c3ccncc3)c(=O)n2C1c1ccc2c(c1)OCO2 (configuration not stated) | 69.7 µM (inactive) | 95.7 µM | > 100 µM | > 100 µM
COc1ccc(C(=O)CN(C(=O)c2ccc(Cl)cc2)N2C(=O)c3ccccc3C2=O)cc1 | 5.66 µM | 34.9 µM | > 100 µM | 22.4 µM
O=C(CCS(=O)(=O)c1ccc(F)cc1)Nc1nnc(-c2cccs2)o1 | 2.94 µM | 47.2 µM | > 100 µM | > 100 µM
O=C1C(Cl)=C(N2CCCCCC2)C(=O)N1c1ccc(Br)cc1 | 7.59 µM (inactive) | 18.3 µM | > 100 µM | 19.4 µM
Cc1nnc(SCC2=C(C(=O)O)N3C(=O)C(NC(=O)COc4ccc(F)cc4)C3SC2)s1 (configuration not stated) | 1.74 µM | 99 µM | > 100 µM | 9.33 µM
Cc1ccc2[nH]c(O)c(N=Nc3nc4ccccc4s3)c2c1 | 6.76 µM | > 100 µM | > 100 µM | > 100 µM
CCCCN(CC)S(=O)(=O)c1ccc(C(=O)Nc2nnc(CSC)o2)cc1 | 17.2 µM (inactive) | 25.2 µM | > 100 µM | 31.7 µM
COc1cc(C(=O)Oc2cccnc2)cc(OC)c1OC | 5.8 µM | 48.4 µM | > 100 µM | 13.6 µM
Cc1cccc2nc(COc3ccc4ccccc4c3Br)cn12 | 49 µM (inactive) | 47.5 µM | > 100 µM | > 100 µM
Cc1nn(-c2ccccc2)cc1/C=N/NC(N)=S | 3.7 µM | > 100 µM | > 100 µM | > 100 µM
Cc1cc(C)cc(OCC(=O)NNC(=O)c2ccccn2)c1 | 1.66 µM | 10.9 µM | 22.3 µM | 16 µM
